Assay results taken from US10188743B2, “Cytisine-linked isoflavonoid antineoplastic agents for the treatment of cancer” (UNIVERSITY OF KENTUCKY RESEARCH FOUNDATION, priority 2016, dated 2019).

How the values were obtained:
AMPK = AMPK activation (levels of phosphorylated AMPK, Western blotting); format: cell-based
Description: (§1) Biochemistry. Western blotting: Cells were lysed in the appropriate volume of lysis buffer (50 mM HEPES, 100 mM NaCl, 2 mM EDTA, 1% glycerol, 50 mM NaF, 1 mM Na3VO4, 1% Triton X-100, with protease inhibitors). The following antibodies were used: HSD17B4 (GeneTex, GTX103864), AMPK (Cell Signaling, 2532), pAMPK (Cell Signaling, 2535), ACC (Cell Signaling, 3676), pACC (Cell Signaling, 11818), p^70 (Cell Signaling, 2708), p-p^70 (Cell Signaling, 9914), S6 (Cell Signaling, 2217), pS6 (Cell Signaling, 4858), MCCA (GeneTex, GTX110062), tubulin (Hybridoma Bank, E7), Actin (Sigma, A1978), His-tag (BD Pharmingen, 552564).

p70 = p70 phosphorylation, mTor pathway (Western blotting); format: cell-based; conditions: PC-3 and LS174T cells
Description: as §1

[1] = test system: PC-3 prostate cancer cells; assay: Seahorse XF assay; format: cell-based; conditions: PC-3 cells
Excerpt: (§2) We further characterized the effects of cytisine-linked isoflavonoid 10c on energy metabolism using a Seahorse XF assay (FIG. 4D-F) that measured oxygen consumption rate (OCR), which was an indicator of mitochondrial respiration, and measured extracellular acidification rate (ECAR), which was largely the result of glycolysis. […] Similar results were found in DLD-1 colon cancer cells and PC-3 prostate cancer cells (FIGS. 8 and 9). These OCR findings were consistent with the prior evaluation of these cytisine-linked isoflavonoids that targeted the hydratase activity in HSD17B4, inhibited VLCFA beta-oxidation, depressed acetyl CoA generation, decreased the ratio of ATP/AMP, and triggered AMPK activation (FIG. 5).
(§3) Seahorse assay: 3×10^4 cells were seeded in XF96 Cell Culture microplate (80 μL of 3.75×10^5 cells/m:). On the next day, cells were treated with DMSO or inhibitors and analyzed using the Seahorse analyzer in Redox Metabolism Shared Resource Facility (RM SRF) at the Markey Cancer Center.

DLD1 colon cancer cells = assay: Seahorse XF assay; format: cell-based
Excerpt: as §2, §3

S6 = S6 phosphorylation, mTor pathway (Western blotting); format: cell-based; conditions: PC-3 and LS174T cells
Description: as §1

[2] = test system: LS174T colon cancer cells; assay: Cancer cell proliferation (Vi-Cell viability and number); format: cell-based; conditions: 10 μM of compound
Description: Cell Culture. LS74T colon cancer cells were cultured in MEM/EBSS (Hyclone SH30024) and PC-3 prostate cancer cells were cultured in DMEM/F-12 HAM Mixture (Sigma D8437) containing 10% Fetal Bovine Serum (Atlanta Biological S11150). Cells (3.5×10^4 cells per well) were split into 12-well plates. After 24 h, 10 μM of each compound were added to each well. DMSO was used as a control. Each experiment was done in triplicate. Cell viability and number were analyzed using the Vi-Cell XR Cell Viability Analyzer (Beckman Coulter). To knock-down HSD17B4 levels, PC-3 and LS174 cell lines were infected with lenti-virus carrying pLKO.1-control shRNA and pLKO.1-HSD17B4b shRNA, respectively. Control shRNA and HSD17B4b shRNA cloned in pLKO.1 vectors with puromycin-resistance selection marker were purchased from Sigma. Lentiviral stocks were prepared as previously described (Yu, 2012).

[3] = target: T1, hydratase activity of HSD17B4 (Homo sapiens, UniProt P51659); assay: HSD17B4 hydratase assay (crotonoyl CoA substrate); format: biochemical
T1 construct: His-tag; made in house; host or cells: E. coli BL21 (pET28)
T1 sequence (P51659 1-736): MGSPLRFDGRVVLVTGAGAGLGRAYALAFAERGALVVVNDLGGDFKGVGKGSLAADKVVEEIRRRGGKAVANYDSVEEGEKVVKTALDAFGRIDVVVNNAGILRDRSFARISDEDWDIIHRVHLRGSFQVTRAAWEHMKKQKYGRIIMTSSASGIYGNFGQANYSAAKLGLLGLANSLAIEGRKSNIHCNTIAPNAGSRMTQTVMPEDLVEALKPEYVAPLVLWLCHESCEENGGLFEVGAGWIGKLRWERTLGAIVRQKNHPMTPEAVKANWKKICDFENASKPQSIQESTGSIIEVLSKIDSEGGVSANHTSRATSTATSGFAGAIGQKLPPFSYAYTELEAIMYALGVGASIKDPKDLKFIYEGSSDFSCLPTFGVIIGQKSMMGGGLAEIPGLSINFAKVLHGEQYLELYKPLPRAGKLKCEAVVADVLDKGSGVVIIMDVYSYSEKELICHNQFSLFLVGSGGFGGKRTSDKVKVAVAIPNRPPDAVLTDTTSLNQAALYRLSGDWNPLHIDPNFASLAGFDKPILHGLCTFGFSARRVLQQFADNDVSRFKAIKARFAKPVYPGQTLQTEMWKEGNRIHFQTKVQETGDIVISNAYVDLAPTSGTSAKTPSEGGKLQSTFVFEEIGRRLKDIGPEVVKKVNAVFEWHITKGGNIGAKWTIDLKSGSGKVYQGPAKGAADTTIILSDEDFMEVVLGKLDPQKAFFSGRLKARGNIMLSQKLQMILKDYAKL
Excerpt: We acquired further evidence along these lines through studies using the N-terminal α,β-dehydrogenase and C-terminal hydratase fragments of HSD17B4 as well as the full-length protein. We evaluated the α,β-dehydrogenase activity using DL-3-hydroxylbutyryl-CoA as a substrate and the conversion of NAD^+ to NADH as a readout. We concomitantly measured the hydratase activity using crotonoyl-CoA as a substrate and the diminished ultraviolet absorption of the α,β-unsaturated thioester chromophore as readout. The full-length protein, as expected, had both enzyme activities (FIGS. 7A and 7B). The C-terminal-truncated fragments N318 and N634 but not the N-terminal-truncation fragment C919 had α,β-dehydrogenase activity (FIG. 7A). The C-terminal fragment N634 and the N-terminal fragment C919, but not the C-terminal fragment N318, had hydratase activity (FIG. 7B), as summarized in FIG. 3A.
The enzymatic activities of HSD17B4 were analyzed using the method reported by Novikov et al. (J. Biol. Chem., 1994, 269, 27125). […] The reaction was quantified by measuring the fluorescent product NADH (excitation: 340 nm; emission 460 nm). […] The reaction was quantified by measuring the remaining substrate using absorbance at 280 nm.

**Q.** What does the source list for O=c1c(-c2ccc(Cl)cc2)coc2cc(OCCN3C[C@@H]4C[C@@H](C3)c3cccc(=O)n3C4)ccc12 [Compound 10c, (1 S,5S)-3-(2-((3-(4-chlorophenyl)-4-oxo-4H-chromen-7-yl)oxy)ethyl)-3,4,5,6-tetrahydro-1H-1,5-methanopyrido[1,2-a][1,5]diazocin-8(2H)-one]?
**A.** AMPK activation (AMPK; LS174T colon cancer cells): activated AMPK; AMPK activation (AMPK; PC-3 prostate cancer cells): activated AMPK; phosphorylation of p70 (p70): inhibited the phosphorylation; respiration rate [1]: reduced respiration rate; ATP production (DLD1 colon cancer cells): reduced; respiration rate (DLD1 colon cancer cells): reduced respiration rate; phosphorylation of S6 (S6): inhibited the phosphorylation; proliferation of LS174T cells [2]: significantly inhibited the proliferation; effect on hydratase activity [3]: significantly inhibited
